The numbers were not newly measured in US20090215137A1, “METHODS FOR THE ECONOMICAL PRODUCTION OF BIOFUEL PRECURSOR THAT IS ALSO A BIOFUEL FROM BIOMASS” (GEVO, INC., priority 2007, published 2009), which cites them from elsewhere.

The conditions of series [1]: octanol:water.
The test system of the next series is Klyveromyces marxianus. To be noted: in binary combination.

≈ marks a conversion by molar mass, not a printed value. Like-named read-outs stand apart in the source and are kept apart here.

Consider `CC(C)O` [Biocatalyst 2-propanol, 2-propanol], for which the “Solubility in water (20° C., unless noted)” value (in words) is reported as “miscible”. Take `CCCCCCCCO` [Biocatalyst 1-octanol, 1-octanol]: the Solubility in water (20° C., unless noted) was 300 µg/mL (≈ 2300 µM). Further, in series [1], the log P – broadly, the decadic logarithm of the partition coefficient of the neutral form, usually between octanol and water – is listed as 3. Besides, the solubility limit (two-phase system (Chen, Q. 1995)) is under 1100 µg/mL. Take `COc1cc(C=O)ccc1O` [Vanillin, vanillin]: in the series with Klyveromyces marxianus, the “reduction in both cell growth and fermentation” value was 90%.

With `CCC(C)O` (stereo not drawn) [Biocatalyst 2-butanol, 2-butanol], the “log P” value in series [1] is reported as 0.6.
